Assay results reported in patent publication US8541408B2, “Aminodihydrothiazine derivatives substituted with a cyclic group” (Shionogi & Co., Ltd., priority 2007, dated 2013).

Target: Recombinant human BACE-1 (Homo sapiens (Human), UniProt P56817)
Experiment: Assay of β-secretase-inhibiting activity
Type: biochemical
Details: substrate peptide 18 nM, BACE-1 7.4 nM, sodium acetate buffer pH 5.0, 30° C. for 3 hours

Sequence of Recombinant human BACE-1 (P56817 46-501): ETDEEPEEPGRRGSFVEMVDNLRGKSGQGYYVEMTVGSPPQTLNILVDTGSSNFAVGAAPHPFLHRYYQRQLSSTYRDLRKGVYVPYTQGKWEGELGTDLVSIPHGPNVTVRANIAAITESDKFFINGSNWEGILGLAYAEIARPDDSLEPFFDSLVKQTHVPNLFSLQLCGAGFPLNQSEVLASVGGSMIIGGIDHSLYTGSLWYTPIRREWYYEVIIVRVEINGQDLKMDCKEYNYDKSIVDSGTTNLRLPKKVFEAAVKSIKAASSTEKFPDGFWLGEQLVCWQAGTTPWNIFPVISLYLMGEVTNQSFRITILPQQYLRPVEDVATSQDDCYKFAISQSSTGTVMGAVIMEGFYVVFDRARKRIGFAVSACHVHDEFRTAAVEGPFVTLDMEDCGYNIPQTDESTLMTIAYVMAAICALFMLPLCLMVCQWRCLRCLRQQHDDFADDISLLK

## CC1(C)C[C@@](C)(c2cncc(NC(=O)c3ccc(Cl)cn3)c2)N=C(N)S1 [Compound 604]
  IC50: ≤ 1000 nM
